Assay results as given in US7888395B2, “STAT3 phosphorylation inhibitor and notch1 expression inhibitor” (Meiji Dairies Corporation, priority 2004, dated 2011).

Assays:
STAT3 = experiment: Western Blot of STAT3 phosphorylation; format: cell-based; conditions: 10^−8 M solution, compared with control without compound, FIG. 2
Method: After preparation of 2,4,4-trimethyl-3-(15-hydroxypentadecyl)-2-cyclohexen-1-one solution (10^−8 M), Western Blot was performed using STAT3 and phosphorylated STAT3 antibody (STAT3 antibody derived from rabbit, manufactured by Cell Signaling) to confirm the action of 2,4,4-trimethyl-3-(15-hydroxypentadecyl)-2-cyclohexen-1-one on STAT3 phosphorylation.

Notch1 [1] = experiment: Gene expression test, RT-PCR analysis of Notch1; format: cell-based, mouse, rat; conditions: treated relative to untreated cells, normalized toward GAPDH
Method: (§1) In ethanol, 2,4,4-trimethyl-3-(15-hydroxypentadecyl)-2-cyclohexen-1-one synthesized by the method described in JP-A-2000-297034 was dissolved to give a concentration of 10^−2 M. The solution was added to a culture solution in a desirable concentration to be final dilution of 1 μl/ml. At different times and different periods in cell culture, 2,4,4-trimethyl-3-(15-hydroxypentadecyl)-2-cyclohexen-1-one was added. […] Each experiment was repeated at least three times.
(§2) Protocol was adapted from Grandbarbe et al., Development (2003) 130, 1393-1402. When briefly explained, as described in Tropepe et al., Dev. Biol. (1999) 208, 166-188, primary neurospheres were prepared from telencephalon of wild-type embryo (E14.5) and were maintained as secondary neurospheres by continuous subculture in a serum-free medium (Reynolds and Weiss, Science (1992) 255, […]) containing 10 ng/ml EGF. After propagation for different times, 50 to 100 neurospheres were inoculated to a polyornithine (Sigma)-coated cover slip in the presence of 2 ng/ml EGF and 0.5% FBS and differentiated. […]
(§3) Typical cycle conditions were 94° C. for 30 seconds, 55° C. for 30 seconds, and 72° C. for 30 seconds except for HES-5 whose program was 94° C. for 30 seconds, 63° C. for 30 seconds, and 72° C. for 2 minutes. […] The relative amount of mRNA was quantitatively determined in accordance with BabyImager analysis and NIHimage 1.36.

HES5 = experiment: Gene expression test, RT-PCR analysis of HES5; format: cell-based, mouse, rat; conditions: treated relative to untreated cells, normalized toward GAPDH
Method: as §1, §2, §3

[2] = test system: 3T3 Ras transformed fibroblast; experiment: Ex vivo test, tumor size after injection of 3T3 Ras transformed fibroblast into Swiss Nu/Nu mouse; format: in vivo; conditions: cells pretreated 3 days, intraperitoneal on days 2, 8 and 15, FIG. 4
Method: In a test tube for 3 days, 3T3 Ras transformed fibroblast (derived from mouse) or 3T3 fibroblast (derived from mouse) was treated with applying 50 μl (10^−3 M) of 2,4,4-trimethyl-3-(15-hydroxypentadecyl)-2-cyclohexen-1-one. The cell ([…]) was again suspended in 400 μl of DMEM medium and 200 μl thereof was injected into 7 weeks-old Swiss Nu/Nu mouse (male) symmetrically. On second, eighth, and fifteenth days after injection, 2,4,4-trimethyl-3-(15-hydroxypentadecyl)-2-cyclohexen-1-one was intraperitoneally administrated into mouse.

[3] = test system: 3T3 Ras transformed fibroblast; experiment: In vitro test, neoplastic foci of 3T3 Ras transformed fibroblast; format: cell-based, mouse; conditions: 10^−6M, compared with untreated cell, FIG. 3
Method: When 3T3 Ras transformed fibroblast was cultured in 10% FBS-containing DMEM medium for 3 days, appearance of “foci” is observed as compared with non-transformed cell strains.
Each of 3T3 Ras transformed fibroblast (derived from mouse) or 3T3 fibroblast (derived from mouse) each is cultured at a concentration of 10,000 cell/ml in 10% FBS-containing DMEM medium for 1 day.
Thereafter, each cell is treated with 10^−5M 2,4,4-trimethyl-3-(15-hydroxypentadecyl)-2-cyclohexen-1-one for 6 days.
3T3 Ras transformed fibroblast or 3T3 fibroblast is cultured at a concentration of 10,000 cell/ml in 5% FBS-containing DMEM medium which contains 0.625% agar (DIFCO) and 10^−6 M 2,4,4-trimethyl-3-(15-hydroxypentadecyl)-2-cyclohexen-1-one.
(§4) The fibroblast transformed with Ras was treated with 2,4,4-trimethyl-3-(15-hydroxypentadecyl)-2-cyclohexen-1-one (10^−6M) and then compared with the untreated cell. Non-transformed cell strains (treated and untreated) were used as controls.

Notch1 [4] = experiment: Notch1 expression in cell strain transformed with Ras; format: cell-based, mouse; conditions: fibroblast transformed with Ras, 10^−6M
Method: as §4

[5] = test system: Notch receptors (Notch 2 to 4); experiment: Gene expression test, RT-PCR analysis of the other Notch receptors; format: cell-based, mouse, rat; conditions: treated relative to untreated cells, normalized toward GAPDH
Method: as §1, §2, §3

expression levels of the other Notch receptors (Notch 2 to 4) [5]: not changed
Structure (SMILES): CC1=C(CCCCCCCCCCCCCCCO)C(C)(C)CCC1=O [2,4,4-trimethyl-3-(15-hydroxypentadecyl)-2-cyclohexen-1-one]
STAT3 phosphorylation (band of P-STAT3) (STAT3): suppressed
levels of mRNA of Notch1 (Notch1 [1]): always decreased
levels of mRNA of HES5 (HES5): always decreased
tumor size [2]: reduced
neoplastic foci of the cell strain transformed with Ras [3]: reduced
Notch1 expression (Notch1 [4]): decrease
